From patent publication US12006276B2, “Dibromobenzyl derivative, stereoisomer or salt thereof, and preparation method and application of dibromobenzyl derivative” (CHENGDU SHIBEIKANG BIOMEDICAL TECHNOLOGY CO., LTD., priority 2019, dated 2024)
Where a name gives a salt, the structure may show the parent alone.

How the values were obtained:
SD rats = experiment: Capillary expectoration test in rats; type: in vivo, rat; conditions: for 90-min length of phlegm expelled: SD rats, 15 mg/kg via tail vein, capillary tube in trachea, x ± s, n=10; for Expectorant effect compared with the ambroxol hydrochloride group (in words): rats, 15 mg/kg, P<0.05 vs ambroxol hydrochloride
Experimental: Capillary Expectoration Test in Rats
The female and male SD rats with body weights ranging from 180 g to 220 g are randomLy allocated into 9 groups (n=10 rats). Before measuring the length of phlegm expelled, the rats are prohibited to eat but allowed to drink for 12 hrs, and then administrated via tail veins with corresponding products (dissolved in normal saline to adjust pH) or normal saline. After 30 mins, urethane saline solution (1 g/kg) is injected intraperitoneally for anesthesia, and the rats are fixed in a supine position for neck incision and trachea separation. […] The angle between the capillary tube and the trachea is adjusted to collect the phlegm, and the expectoration effect is evaluated based on a total length (mm) of the phlegm in the capillary tube.

[1] = Pharmacokinetics test in rats; type: in vivo, rat; conditions: intravenous; for MRT / clearance / half-life / AUC(0-inf): both sexes, rat, plasma, 10 mg/kg as free alkali; for MRT / clearance / half-life: n=6; for AUC(0-inf): n=6, read-out: AUC AUC0-inf; for Half-life, clearance, MRT and AUC compared with the ambroxol hydrochloride group (in words): P<0.05
Experimental: Pharmacokinetics Test in Rats
Methods: Twenty-four female and male rats are randomLy allocated into an Example 1 compound group (10 mg/kg, as free alkali), an Example 3 compound group (10 mg/kg, as free alkali), an Example 12 compound group and an ambroxol hydrochloride group (10 mg/kg, as free alkali) (n=6); These rats are given corresponding products (dissolved in normal saline to adjust pH) intravenously. About 0.2 mL of blood samples is respectively collected from jugular veins before and 15.0 min, 30.0 min, 1.0 h, 2.0 h, 3.0 h, 4.0 h, 6.0 h, 8.0 h, 12.0 h and 24.0 h after the administration, and then centrifuged at a high speed (7800×g) for 15 min in a tube containing EDTA-K2. The separated plasma is stored at −15° C.˜−35° C.

mice = experiment: Phenol red expectoration test in mice; type: in vivo, mouse; conditions: for Excretory amount of phenol red (OD value): 30 mg/kg as free alkali, twice via tail vein, trachea phenol red at 546 nm, x ± s, n=12; for Excretory amounts of phenol red compared with the control group (in words) / Excretory amounts of phenol red compared with the ambroxol hydrochloride group (in words): 30 mg/kg; for Excretory amounts of phenol red compared with the control group (in words): p<0.05 vs control; for Excretory amounts of phenol red compared with the ambroxol hydrochloride group (in words): P<0.05 vs ambroxol hydrochloride
Experimental: Phenol Red Expectoration Test in Mice
Methods: Seventy-two female and male mice are randomLy allocated into a control group (normal saline), an Example 1 group (30 mg/kg, as free alkali), an Example 3 group (30 mg/kg, as free alkali), an Example 5 group (30 mg/kg, as free alkali), an Example 12 group (30 mg/kg, as free alkali) and an ambroxol hydrochloride group (30 mg/kg, as free alkali) (n=12 mice); These mice are administrated twice in successive via tail veins with corresponding products (dissolved in normal saline to adjust pH) or normal saline, and then receive 5% phenol red saline solution (0.5 g/kg) by hypodermic administration 15 mins after the last dose. […] The effects on excretory amounts of phenol red from trachea of mice among groups are analyzed and compared, and results are shown in Table 2: […]

MRT [1] [h] | clearance [1] [mL/min/kg] | half-life [1] [h] | AUC(0-inf) [1] [ng·h/mL] | SMILES | 90-min length of phlegm expelled (SD rats) [mm] | Excretory amount of phenol red (OD value) (mice) | Excretory amounts of phenol red compared with the control group (in words) (mice) | Expectorant effect compared with the ambroxol hydrochloride group (in words) (SD rats) | Half-life, clearance, MRT and AUC compared with the ambroxol hydrochloride group (in words) [1] | Excretory amounts of phenol red compared with the ambroxol hydrochloride group (in words) (mice)
1.18 ± 0.2 | 101 | 1.98 ± 0.34 | 1650 ± 71.9 | Nc1c(Br)cc(Br)cc1CN[C@H]1CC[C@H](O)CC1 [Ambroxol hydrochloride, reference compound] | 29.9 ± 4.96 | 0.131 ± 0.015 | significantly increase | – | – | –
2.58 ± 0.41 | 34.9 | 3.58 ± 0.45 | 4470 ± 250 | Nc1c(Br)cc(Br)cc1CNC12CC3CC(CC(O)(C3)C1)C2 [Example 1, 3-((2-amino-3,5-dibromobenzyl)amino)adamantane-1-ol] | 39.9 ± 5.35 | 0.220 ± 0.063 | significantly increase | remarkably superior to the ambroxol hydrochloride | significantly superior to the ambroxol hydrochloride group | remarkably superior to the ambroxol hydrochloride
2.31 ± 0.36 | 47.7 | 3.12 ± 0.34 | 3650 ± 180 | Nc1c(Br)cc(Br)cc1CN[C@@H]1CCC[C@H]1O [Example 3, (1R,2R)-2-((2-amino-3,5-dibromobenzyl)amino)-cyclopentanol] | 37.8 ± 6.45 | 0.218 ± 0.052 | significantly increase | remarkably superior to the ambroxol hydrochloride | significantly superior to the ambroxol hydrochloride group | remarkably superior to the ambroxol hydrochloride
– | – | – | – | CC12CC3CC(C1)CC(NCc1cc(Br)cc(Br)c1N)(C3)C2 [Example 5, (2-amino-3,5-dibromobenzyl)-3-methyl-adamantane-1-amine] | 36.9 ± 5.45 | 0.201 ± 0.062 | – | – | – | –
– | – | – | – | Nc1c(Br)cc(Br)cc1CNC12CC3CC(C1)CC(C(F)(F)F)(C3)C2 [Example 6, (2-amino-3,5-dibromobenzyl)-3-trifluoromethyl-adamantane-1-amine] | 35.2 ± 4.79 | – | – | – | – | –
– | – | – | – | Nc1c(Br)cc(Br)cc1CN[C@@H]1CCC[C@@H]1C(F)(F)F [Example 7, (1R,2S)-2-trifluoromethyl-((2-amino-3,5-dibromobenzyl)amino)-cyclopentane] | 31.8 ± 5.73 | – | – | – | – | –
– | – | – | – | Nc1c(Br)cc(Br)cc1CNC12CC3CC(CC(C3)C1F)C2 (stereo not drawn) [Example 8, (2-amino-3,5-dibromobenzyl)-2-fluoro-adamantane-1-amine] | 35.8 ± 5.98 | – | – | – | – | –
2.65 ± 0.42 | 35.8 | 3.43 ± 0.35 | 4490 ± 240 | Nc1c(Br)cc(Br)cc1CNC1C2CC3CC1CC(O)(C3)C2 (stereo not drawn) [Example 12, 4-((2-amino-3,5-dibromobenzyl)amino)adamantane-1-ol] | 39.8 ± 5.31 | 0.221 ± 0.059 | significantly increase | remarkably superior to the ambroxol hydrochloride | significantly superior to the ambroxol hydrochloride group | remarkably superior to the ambroxol hydrochloride
